Test results from article PMC6143478, “Lipophilic activated ester prodrug approach for drug delivery to the intestinal lymphatic system” (Journal of Controlled Release, 2018).
“Also recorded” adds a separate entry of the source. Blank lines part the entries; values can stand above or below the compound they belong to.

Tests used:
human chylomicrons (CM) = assay: Ex vivo association with human plasma-derived chylomicrons; assay type: in vitro ADME; settings: in words; for association with human chylomicrons (CM): 1.755 μM, 37 °C, 1 h, relative to parent drug
From the text: The protocol for preparation of human plasma-derived CM emulsion was approved by the Faculty of Medicine and Health Sciences Research Ethics Committee, Queens Medical Centre, Nottingham University Hospitals (BT12102015 CBS SoP). Healthy male volunteers of 19–40 years old and with body mass index of 18.5–25.0 were enrolled in the study after providing informed consent. The participants were excluded if any medication was used within one week prior to enrolment. On the morning of the study, participants received a high-fat meal (equivalent to a full English breakfast). Between 3 and 4 h following breakfast, 30 mL of blood was collected using heparinised tubes (Vacutainer® Blood Collection Tubes) and centrifuged (800 g, 10 min, 15 °C) to obtain plasma.
CM separation was performed as previously reported with minor modifications. Briefly, KBr (0.57 g) was mixed with 4 mL of plasma to yield density of 1.1 g/mL. PBS with densities of 1.006, 1.019, and 1.063 g/mL were prepared by adding appropriate amounts of KBr. These PBS of different densities were layered on top of the plasma to build density gradient layers in polyallomer ultracentrifuge tubes. The samples were then centrifuged at 268,350 g for 35 min at 15 °C using an ultracentrifuge (SORVALL® TH-641 Rotor, Thermo Fisher Scientific, UK). Following ultracentrifugation, approximately 1 mL of the upper layer containing CM was collected. TG concentration of CM emulsion was assessed using the TG enzymatic kit (Sigma Aldrich, Dorset, UK). TG concentration of the emulsion was adjusted to 100 mg/dL by diluting with PBS of 1.006 g/mL density. The CM emulsion was stored at 4 °C until the association assay (˂24 h).
(§1) The association of the compounds with artificial lipid particle emulsion and human CM was assessed using previously reported methodology with minor modifications. Briefly, 1 mL of artificial lipid particle or CM emulsions (TG concentration 100 mg/dL) was used for the association assay. The emulsion was spiked with stock solutions of tested compounds (in acetonitrile) to give a final concentration of 1.755 μM. The reaction mixtures were incubated at 37 °C for 1 h with magnetic stirring at 300 rpm. Following the incubation, density gradient ultracentrifugation was applied as described above to isolate the artificial lipid particles or CM associated with the tested compounds from the rest of the experimental medium. All experiments were conducted in quintuplicates or above.

[1] = Prodrug conversion assay in rat plasma; assay type: in vitro ADME
Protocol: (§2) The prodrugs were tested for their stability and conversion into their corresponding active drug using fasted state simulated intestinal fluid (FaSSIF) with added esterase enzyme activity (20 IU/mL), rat plasma, and postprandial rat lymph. The FaSSIF was prepared as previously described in the literature. The medium was pre-heated to 37 °C prior to the assay for 5 min. The experiment was initiated by spiking stock solutions of prodrugs to give a final concentration of 10 μM of the prodrugs in the medium. When the stability of the artificial emulsion-associated prodrugs was tested in plasma, the association of compounds with artificial emulsion was performed prior to stability experiments and the concentrations of the compounds in the associated emulsion were measured. The emulsion was then spiked to give a concentration of 10 μM of the prodrugs in plasma. The reaction mixtures were incubated at 37 °C and shaken at 200 rpm on a temperature-controlled orbital shaker (Thermo Scientific MaxQ4000, Waltham, MA, USA) for 4 h. Samples were withdrawn at pre-determined time points, and the reaction was terminated by addition of acetonitrile. The samples were then subjected to sample preparation and analysis as described below. The natural log percentage of the prodrug concentration was plotted against incubation time, and the slope (k) was obtained from the plot. Half-life of active drug release (t1/2) was calculated by the following equation: t1/2 = −0.693/k. All experiments were conducted in triplicate.

[2] = Prodrug conversion assay in postprandial rat lymph; assay type: in vitro ADME; settings: CM-rich postprandial rat lymph, ex vivo; relative to rat plasma
Protocol: as §2, with “The natural log percentage of the prodrug concentration was plotted against incubation time, and the slope (k) was obtained from the plot.” left out, “All experiments were conducted in triplicate.” left out

[3] = system: esterase from porcine liver; assay: Prodrug conversion assay in FaSSIF with added esterase activity; assay type: in vitro ADME; settings: esterase 20 IU/mL, 10 μM, 37 °C, 4 h; in words
Protocol: BEX was purchased from LC Laboratories (Woburn, MA, USA). RA (all-trans), Intralipid®, esterase from porcine liver, sodium taurocholate (NaTc), NaCl, NaF and lecithin were obtained from Sigma (Gillingham, UK). Rat plasma was purchased from Sera Laboratories (West Sussex, UK). Thiazolyl blue tetrazolium bromide (MTT), sesame oil, polyethylene glycol 400 (PEG400) and all solvents (HPLC grade or higher) were purchased from Fisher Scientific (Loughborough, UK).
The prodrugs were tested for their stability and conversion into their corresponding active drug using fasted state simulated intestinal fluid (FaSSIF) with added esterase enzyme activity (20 IU/mL), rat plasma, and postprandial rat lymph. The FaSSIF was prepared as previously described in the literature. The medium was pre-heated to 37 °C prior to the assay for 5 min. […] When the stability of the artificial emulsion-associated prodrugs was tested in plasma, the association of compounds with artificial emulsion was performed prior to stability experiments and the concentrations of the compounds in the associated emulsion were measured. […] Samples were withdrawn at pre-determined time points, and the reaction was terminated by addition of acetonitrile. […] Half-life of active drug release (t1/2) was calculated by the following equation: t1/2 = −0.693/k. […]

[4] = Biodistribution to mesenteric lymph nodes (MLN) and lymph following oral administration in rats; assay type: in vivo; settings: rat
Protocol: The protocols for pharmacokinetic and biodistribution experiments in this study were reviewed and approved by the University of Nottingham Ethical Review Committee in accordance with the Animals [Scientific Procedures] Act 1986. Male Sprague Dawley rats (Charles River Laboratories, UK) weighing 350–380 g were used. The animals were housed in the Bio Support Unit, University of Nottingham. Continuous lymph collection was performed according to a protocol approved by the Institutional Animal Care and Use Committee at Rutgers, The State University of New Jersey. Male Sprague Dawley rats (Envigo, Inc., NJ, USA) weighing 300–350 g were used for the continuous lymph collection. Animals were allowed free access to food and water and were acclimatised for at least 6 days prior to any procedures at both institutions in a controlled-temperature environment with 12 h light/dark cycles.
Formulations were prepared as described in the above pharmacokinetic study and were delivered by an oral gavage. Animals were euthanised at pre-determined time points. Blood was collected from the posterior vena cava and lymph samples were taken from the mesenteric lymph duct. MLNs were dissected and collected as previously described. The MLNs were isolated from surrounding tissue with care not to compromise the integrity of the lymph nodes. The MLNs were homogenised (POLYTRON® PT 10–35 GT, Kinematica AG, Luzern, Switzerland) with 10 mg/mL NaF in water (1,2, w/v) on an ice bath prior to sample preparation for HPLC analysis.
A combination of protein precipitation and liquid-liquid extraction was applied to samples prior to HPLC injection. To 100 μL sample, 300 μL of acetonitrile was added for protein precipitation and then 300 μL of pH modifier was added when necessary (Supplementary Material Table S2). […] The organic layer was separated and evaporated under N2 gas. Reconstitution solvent (100 μL) was used as detailed in Supplementary Material Table S2 and 40 μL was injected into the HPLC-UV system. […] Therefore, storage and preparation of all samples were performed within the time frame and conditions of confirmed stability.
The HPLC-UV system consisting of a separation module (Waters Alliance 2695) equipped with a UV detector (Waters 996) was used for analysis. Samples in the autosampler were maintained at 4 °C and the column at 40 °C. The stationary and mobile phases were used as specified in Supplementary Material Table S2. BEX and its prodrugs were detected at 259 nm and RA and its prodrugs at 357 nm.

[5] = In vitro association with artificial lipid particle emulsion prepared from Intralipid; assay type: in vitro ADME; settings: TG 100 mg/dL, 1.755 μM, 37 °C, 1 h, in words, relative to parent drug
Protocol: To prepare the artificial lipid particle emulsion, Intralipid® 20% (Sigma, Gillingham, UK) was diluted using phosphate buffered saline (PBS) to yield 100 mg/dL of triglyceride (TG) concentration. A TG enzymatic kit (Sigma Aldrich, Dorset, UK) was used to monitor the TG concentration by following manufacturer's instructions.
as §1

SMILES: C=C(c1ccc(C(=O)OC)cc1)c1cc2c(cc1C)C(C)(C)CCC2(C)C [prodrug 1]
association with human chylomicrons (CM) (human chylomicrons (CM)): equally high affinity to CM

conversion of emulsion-associated form of prodrug in rat plasma ([1]; prodrug incorporated into Intralipid lipid particles, 10 μM, relative to free form): delayed conversion
half-life at 10 μM ([1]; rat, plasma, in vitro, 37 °C, free form, read-out: half-life of active drug release in rat plasma): 8 min
half-life of active drug release in postprandial lymph [2]: prolonged
SMILES: C=C(c1ccc(C(=O)OCc2oc(=O)oc2C)cc1)c1cc2c(cc1C)C(C)(C)CCC2(C)C [prodrug 25]

conversion to BEX in FaSSIF with esterase [3]: too slow to be detected
SMILES: C=C(c1ccc(C(=O)OCCCCCCCC)cc1)c1cc2c(cc1C)C(C)(C)CCC2(C)C [prodrug 9]

SMILES: C=C(c1ccc(C(=O)OCCC)cc1)c1cc2c(cc1C)C(C)(C)CCC2(C)C [prodrug 4]
association with human chylomicrons (CM) (human chylomicrons (CM)): equally high affinity to CM

conversion to BEX in FaSSIF with esterase [3]: too slow to be detected
SMILES: C=C(c1ccc(C(=O)OC(C(C)C)C(C)C)cc1)c1cc2c(cc1C)C(C)(C)CCC2(C)C [prodrug 18]

concentrations of BEX in intestinal lymphatics (MLNs, lymph) relative to plasma ([4]; BEX analyte, dose equivalent to 10 mg/kg BEX, in words): comparable to that in plasma
SMILES: C=C(c1ccc(C(=O)OC(COC(=O)CCCCCCCCCCCCCCC)COC(=O)CCCCCCCCCCCCCCC)cc1)c1cc2c(cc1C)C(C)(C)CCC2(C)C [prodrug 13]
conversion to BEX in rat plasma ([1]; in vitro, 10 μM, 37 °C, 4 h, in words): BEX was not released; also recorded: not observed
intact form of prodrug in samples ([4]; plasma, MLN, lymph, any time point): not found in any sample at any time point

SMILES: CC1=C(/C=C/C(C)=C/C=C/C(C)=C/C(=O)OCc2oc(=O)oc2C)C(C)(C)CCC1 [prodrug 27]
association with artificial emulsion [5]: improved association
association with human chylomicrons (CM) (human chylomicrons (CM)): improved association

SMILES: CCOC(=O)/C=C(C)/C=C/C=C(C)/C=C/C1=C(C)CCCC1(C)C [prodrug 26]
association with artificial emulsion [5]: improved association
association with human chylomicrons (CM) (human chylomicrons (CM)): improved association

SMILES: C=C(c1ccc(C(=O)OCCN(C(C)C)C(C)C)cc1)c1cc2c(cc1C)C(C)(C)CCC2(C)C [prodrug 24]
difference in affinity for artificial emulsion versus natural human CM (human chylomicrons (CM)): significant differences
